Measurements: the supplement of paper PMC10307832

What was measured:
Assay in all cases: relative viability (nuclei count vs DMSO), 5 days (fraction); higher = more cells survive
[1] = system: 201T
In short: (§1)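 Lung cancer cell lines were pin-tool dosed in 1536-well plates on the day after seeding, with either a lone drug or a fixed anchor-drug dose plus five library-drug doses (not always all listed) in √10 steps. Nuclei were counted on 4× images after 5 days. Relative viability is the ratio of treated-well to vehicle-well nuclei counts, with each value a median of duplicate plates.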

[2] = system: A-427
In short: as §1

[3] = system: BEN
In short: as §1

[4] = system: COR-L23
In short: as §1

[5] = system: EKVX
In short: as §1

[6] = system: HARA
In short: as §1

[7] = system: HCC-15
In short: as §1

[8] = system: HCC-44
In short: as §1

[9] = system: HCC-827
In short: as §1

[10] = system: NCI-H1437
In short: as §1

[11] = system: NCI-H1650
In short: as §1

[12] = system: NCI-H1666
In short: as §1

[13] = system: NCI-H1792
In short: as §1

[14] = system: NCI-H1975
In short: as §1

[15] = system: NCI-H2342
In short: as §1

[16] = system: NCI-H23
In short: as §1

[17] = system: NCI-H358
In short: as §1

[18] = system: NCI-H441
In short: as §1

[19] = system: NCI-H596
In short: as §1

[20] = system: NCI-H650
In short: as §1

[21] = system: NCI-H838
In short: as §1

[22] = system: SK-MES-1
In short: as §1

[23] = system: SW 900
In short: as §1

SMILES: COc1nc(C)cnc1NS(=O)(=O)c1cccnc1-c1ccc(-c2nnco2)cc1 [Zibotentan] + Nc1ncn([C@H]2C[C@H](O)[C@@H](CO)O2)c(=O)n1 [Decitabine] (partner 2 µM)
- relative viability ([1]; first compound 0.08 µM): 0.841
- relative viability ([1]; first compound 0.253 µM): 0.865
- relative viability ([1]; first compound 0.8 µM): 0.855
- relative viability ([1]; first compound 2.53 µM): 0.919
- relative viability ([2]; first compound 0.08 µM): 0.537
- relative viability ([2]; first compound 0.253 µM): 0.542
- relative viability ([2]; first compound 0.8 µM): 0.613
- relative viability ([2]; first compound 2.53 µM): 0.582
- relative viability ([3]; first compound 0.08 µM): 0.784
- relative viability ([3]; first compound 0.253 µM): 0.691
- relative viability ([3]; first compound 0.8 µM): 0.734
- relative viability ([3]; first compound 2.53 µM): 0.646
- relative viability ([4]; first compound 0.08 µM): 0.506
- relative viability ([4]; first compound 0.253 µM): 0.402
- relative viability ([4]; first compound 0.8 µM): 0.573
- relative viability ([4]; first compound 2.53 µM): 0.455
- relative viability ([5]; first compound 0.08 µM): 0.325
- relative viability ([5]; first compound 0.253 µM): 0.339
- relative viability ([5]; first compound 0.8 µM): 0.286
- relative viability ([5]; first compound 2.53 µM): 0.346
- relative viability ([6]; first compound 0.08 µM): 0.551
- relative viability ([6]; first compound 0.8 µM): 0.515
- relative viability ([6]; first compound 2.53 µM): 0.497
- relative viability ([7]; first compound 0.08 µM): 0.607
- relative viability ([7]; first compound 0.253 µM): 0.538
- relative viability ([7]; first compound 0.8 µM): 0.727
- relative viability ([7]; first compound 2.53 µM): 0.696
- relative viability ([8]; first compound 0.08 µM): 1.01
- relative viability ([8]; first compound 0.253 µM): 0.924
- relative viability ([8]; first compound 0.8 µM): 1.01
- relative viability ([8]; first compound 2.53 µM): 0.988
- relative viability ([9]; first compound 0.08 µM): 0.341
- relative viability ([9]; first compound 0.253 µM): 0.333
- relative viability ([9]; first compound 0.8 µM): 0.341
- relative viability ([9]; first compound 2.53 µM): 0.343
- relative viability ([10]; first compound 0.08 µM): 0.534
- relative viability ([10]; first compound 0.253 µM): 0.545
- relative viability ([10]; first compound 0.8 µM): 0.564
- relative viability ([10]; first compound 2.53 µM): 0.556
- relative viability ([11]; first compound 0.08 µM): 0.393
- relative viability ([11]; first compound 0.8 µM): 0.626
- relative viability ([11]; first compound 2.53 µM): 0.488
- relative viability ([12]; first compound 0.08 µM): 0.71
- relative viability ([12]; first compound 0.253 µM): 0.685
- relative viability ([12]; first compound 0.8 µM): 0.745
- relative viability ([12]; first compound 2.53 µM): 0.56
- relative viability ([13]; first compound 0.08 µM): 0.491
- relative viability ([13]; first compound 0.253 µM): 0.549
- relative viability ([13]; first compound 0.8 µM): 0.547
- relative viability ([13]; first compound 2.53 µM): 0.575
- relative viability ([14]; first compound 0.08 µM): 0.565
- relative viability ([14]; first compound 0.253 µM): 0.384
- relative viability ([14]; first compound 0.8 µM): 0.403
- relative viability ([14]; first compound 2.53 µM): 0.377
- relative viability ([15]; first compound 0.08 µM): 0.659
- relative viability ([15]; first compound 0.253 µM): 0.776
- relative viability ([15]; first compound 0.8 µM): 0.707
- relative viability ([15]; first compound 2.53 µM): 0.71
- relative viability ([16]; first compound 0.08 µM): 0.321
- relative viability ([16]; first compound 0.253 µM): 0.286
- relative viability ([16]; first compound 0.8 µM): 0.34
- relative viability ([16]; first compound 2.53 µM): 0.38
- relative viability ([17]; first compound 0.08 µM): 0.196
- relative viability ([17]; first compound 0.253 µM): 0.139
- relative viability ([17]; first compound 2.53 µM): 0.222
- relative viability ([18]; first compound 0.08 µM): 0.244
- relative viability ([18]; first compound 0.253 µM): 0.273
- relative viability ([18]; first compound 0.8 µM): 0.264
- relative viability ([18]; first compound 2.53 µM): 0.225
- relative viability ([19]; first compound 0.08 µM): 0.992
- relative viability ([19]; first compound 0.253 µM): 0.911
- relative viability ([19]; first compound 0.8 µM): 1.06
- relative viability ([19]; first compound 2.53 µM): 1.04
- relative viability ([20]; first compound 0.08 µM): 0.298
- relative viability ([20]; first compound 0.253 µM): 0.297
- relative viability ([20]; first compound 0.8 µM): 0.352
- relative viability ([20]; first compound 2.53 µM): 0.311
- relative viability ([21]; first compound 0.08 µM): 0.455
- relative viability ([21]; first compound 0.253 µM): 0.414
- relative viability ([21]; first compound 0.8 µM): 0.545
- relative viability ([21]; first compound 2.53 µM): 0.461
- relative viability ([22]; first compound 0.08 µM): 0.389
- relative viability ([22]; first compound 0.253 µM): 0.285
- relative viability ([22]; first compound 0.8 µM): 0.447
- relative viability ([22]; first compound 2.53 µM): 0.365
- relative viability ([23]; first compound 0.08 µM): 0.482
- relative viability ([23]; first compound 0.253 µM): 0.345
- relative viability ([23]; first compound 0.8 µM): 0.49
- relative viability ([23]; first compound 2.53 µM): 0.438
